Measurements published in patent publication US8314143B2, “Synthetic flavonoids and pharmaceutical compositions and therapeutic methods of treatment of HIV infection and other pathologies” (Florida A&M University, priority 2006, dated 2012).
Values joined by “and” are separate entries in the source; they are usually repeats but may differ in a detail not shown here. Equal values may be shown once.

Assays:
Type in all cases: cell-based
PC-3 cells = assay: Cytoxicity on PC-3 cells (drug inhibition, cell count); details: for % Inhibition Mean / Cells (×10^4) Mean / % Inhibition / Cells (×10^4): Exp. Nov. 11 to Nov. 17, 2005; for % Inhibition / Cells (×10^4): single replicates
Source text: The purified and identified analogs were subjected to in vitro biological testing.

H-9 cells = assay: Cytoxicity on H-9 cells (drug inhibition, cell count); details: for H-9 Mean (drug inhibition): Table 4 summary; for % Inhibition Mean / Cells (×10^4) Mean / % Inhibition / Cells (×10^4): Exp. Dec. 05 to Dec. 09, 2005; for % Inhibition / Cells (×10^4): single replicates
Source text: (§1) The purified and identified analogs were subjected to in vitro biological testing. […] These three congeners were further evaluated in H9 and PC3 cells. AZT was employed as a positive control in all of these experiments.

MCF-7 cells = assay: Cytoxicity on MCF-7 cells (drug inhibition, cell count); parameters: Drug Inhibition on MCF-7 Cells / MCF-7 Mean (drug inhibition) / Drug inhibition on MCF-7 Cells Mean: unit not given here; details: MCF-7 cells; for MCF-7 Mean (drug inhibition): Table 13 summary part; for Drug inhibition on MCF-7 Cells Mean: Table 14 summary part
Source text: as §1

[1] = 1 μg/ml, mean, Exp. Nov. 14 to Nov. 18, 2005
[2] = 1 μg/ml, mean, Exp. Sep. 08 to Sep. 12, 2005
[3] = 1 μg/ml, mean, Exp. Sep. 12 to Sep. 16, 2005
[4] = 1 μg/ml, mean, Exp. Sep. 26 to Sep. 30, 2005
[5] = 1 μg/ml, single replicates, Exp. Nov. 14 to Nov. 18, 2005
[6] = 1 μg/ml, single replicates, Exp. Sep. 08 to Sep. 12, 2005
[7] = 1 μg/ml, single replicates, Exp. Sep. 12 to Sep. 16, 2005
[8] = 1 μg/ml, single replicates, Exp. Sep. 26 to Sep. 30, 2005
[9] = 5 μg/ml, mean, Exp. Nov. 14 to Nov. 18, 2005
[10] = 5 μg/ml, mean, Exp. Sep. 08 to Sep. 12, 2005
[11] = 5 μg/ml, mean, Exp. Sep. 12 to Sep. 16, 2005
[12] = 5 μg/ml, mean, Exp. Sep. 26 to Sep. 30, 2005
[13] = 5 μg/ml, single replicates, Exp. Nov. 14 to Nov. 18, 2005
[14] = 5 μg/ml, single replicates, Exp. Sep. 08 to Sep. 12, 2005
[15] = 5 μg/ml, single replicates, Exp. Sep. 12 to Sep. 16, 2005
[16] = 5 μg/ml, single replicates, Exp. Sep. 26 to Sep. 30, 2005
[17] = 10 μg/ml, mean, Exp. Nov. 14 to Nov. 18, 2005
[18] = 10 μg/ml, mean, Exp. Sep. 08 to Sep. 12, 2005
[19] = 10 μg/ml, mean, Exp. Sep. 12 to Sep. 16, 2005
[20] = 10 μg/ml, mean, Exp. Sep. 26 to Sep. 30, 2005
[21] = 10 μg/ml, single replicates, Exp. Nov. 14 to Nov. 18, 2005
[22] = 10 μg/ml, single replicates, Exp. Sep. 08 to Sep. 12, 2005
[23] = 10 μg/ml, single replicates, Exp. Sep. 12 to Sep. 16, 2005
[24] = 10 μg/ml, single replicates, Exp. Sep. 26 to Sep. 30, 2005

Cc1cn([C@H]2C[C@H](N=[N+]=[N-])[C@@H](CO)O2)c(=O)[nH]c1=O [AZT, reference compound]
Drug Inhibition on PC-3 cells (PC-3 cells; 1 μg/ml, Table 7): 17.27 | Drug Inhibition on PC-3 cells (PC-3 cells; 1 μg/ml, Table 10): 13.69 | % Inhibition Mean (PC-3 cells; 1 μg/ml): 13.69% | Cells (×10^4) Mean (PC-3 cells; 1 μg/ml): 84.58 ×10^4 | % Inhibition (PC-3 cells; 1 μg/ml): 14.29% and 12.76% and 14.03% | Cells (×10^4) (PC-3 cells; 1 μg/ml): 84.0 ×10^4 and 85.5 ×10^4 and 84.3 ×10^4 | Drug Inhibition on PC-3 cells (PC-3 cells; 5 μg/ml, Table 7): 43.23 | Cells (×10^4) Mean (PC-3 cells; 5 μg/ml): 17.33 ×10^4 | Cells (×10^4) (PC-3 cells; 5 μg/ml): 70.5 ×10^4 and 72.3 ×10^4 and 71.3 ×10^4 | Drug Inhibition on PC-3 cells (PC-3 cells; 10 μg/ml, Table 7): 59.67 | Drug Inhibition on PC-3 cells (PC-3 cells; 10 μg/ml, Table 10): 37.16 | % Inhibition Mean (PC-3 cells; 10 μg/ml): 37.16% | Cells (×10^4) Mean (PC-3 cells; 10 μg/ml): 61.58 ×10^4 | % Inhibition (PC-3 cells; 10 μg/ml): 37.24% and 37.50% and 36.73% | Cells (×10^4) (PC-3 cells; 10 μg/ml): 61.5 ×10^4 and 61.3 ×10^4 and 62.0 ×10^4 | H-9 Mean (drug inhibition) (H-9 cells; 1 μg/ml): 18.74 | % Inhibition Mean (H-9 cells; 1 μg/ml): 18.74% | Cells (×10^4) Mean (H-9 cells; 1 μg/ml): 40.83 ×10^4 | % Inhibition (H-9 cells; 1 μg/ml): 17.91% and 25.37% and 12.94% | Cells (×10^4) (H-9 cells; 1 μg/ml): 41.3 ×10^4 and 37.5 ×10^4 and 43.8 ×10^4 | H-9 Mean (drug inhibition) (H-9 cells; 5 μg/ml): 38.47 | % Inhibition Mean (H-9 cells; 5 μg/ml): 38.47% | Cells (×10^4) Mean (H-9 cells; 5 μg/ml): 30.92 ×10^4 | % Inhibition (H-9 cells; 5 μg/ml): 39.30% and 40.30% and 35.82% | Cells (×10^4) (H-9 cells; 5 μg/ml): 30.5 ×10^4 and 30.0 ×10^4 and 32.3 ×10^4 | H-9 Mean (drug inhibition) (H-9 cells; 10 μg/ml): 49.75 | % Inhibition Mean (H-9 cells; 10 μg/ml): 49.75% | Cells (×10^4) Mean (H-9 cells; 10 μg/ml): 25.25 ×10^4 | % Inhibition (H-9 cells; 10 μg/ml): 48.26% and 50.25% and 50.75% | Cells (×10^4) (H-9 cells; 10 μg/ml): 26.0 ×10^4 and 25.0 ×10^4 and 24.8 ×10^4 | Drug Inhibition on MCF-7 Cells (MCF-7 cells; 1 μg/ml, Table 8 summary): 6.92 | Drug Inhibition on MCF-7 Cells (MCF-7 cells; 1 μg/ml, Table 12 summary): 26.55 | MCF-7 Mean (drug inhibition) (MCF-7 cells; 1 μg/ml): 25.77 | Drug inhibition on MCF-7 Cells Mean (MCF-7 cells; 1 μg/ml): 21.53 | % Inhibition Mean (MCF-7 cells; [1]): 6.92% | Cells (×10^4) Mean (MCF-7 cells; [1]): 53.83 ×10^4 | % Inhibition Mean (MCF-7 cells; [2]): 25.77% | Cells (×10^4) Mean (MCF-7 cells; [2]): 52.33 ×10^4 | % Inhibition Mean (MCF-7 cells; [3]): 21.53% | Cells (x10^4) Mean (MCF-7 cells; [3]): 45.25 x10^4 | % Inhibition Mean (MCF-7 cells; [4]): 26.55% | Cells (×10^4) Mean (MCF-7 cells; [4]): 36.42 ×10^4 | % Inhibition (MCF-7 cells; [5]): 8.36% and 4.47% and 7.93% | Cells (×10^4) (MCF-7 cells; [5]): 53.0 ×10^4 and 55.3 ×10^4 and 53.3 ×10^4 | % Inhibition (MCF-7 cells; [6]): 27.66% and 23.76% and 25.89% | Cells (×10^4) (MCF-7 cells; [6]): 51.0 ×10^4 and 53.8 ×10^4 and 52.3 ×10^4 | % Inhibition (MCF-7 cells; [7]): 22.83% and 20.23% and 21.53% | Cells (x10^4) (MCF-7 cells; [7]): 44.5 x10^4 and 46.0 x10^4 and 45.3 x10^4 | % Inhibition (MCF-7 cells; [8]): 28.40% and 25.88% and 25.38% | Cells (×10^4) (MCF-7 cells; [8]): 35.5 ×10^4 and 36.8 ×10^4 and 37.0 ×10^4 | Drug Inhibition on MCF-7 Cells (MCF-7 cells; 5 μg/ml, Table 8 summary): 38.62 | Drug Inhibition on MCF-7 Cells (MCF-7 cells; 5 μg/ml, Table 12 summary): 46.86 | MCF-7 Mean (drug inhibition) (MCF-7 cells; 5 μg/ml): 39.36 | Drug inhibition on MCF-7 Cells Mean (MCF-7 cells; 5 μg/ml): 50.43 | % Inhibition Mean (MCF-7 cells; [9]): 38.62% | Cells (×10^4) Mean (MCF-7 cells; [9]): 35.50 ×10^4 | % Inhibition Mean (MCF-7 cells; [10]): 39.36% | Cells (×10^4) Mean (MCF-7 cells; [10]): 42.75 ×10^4 | % Inhibition Mean (MCF-7 cells; [11]): 50.43% | Cells (x10^4) Mean (MCF-7 cells; [11]): 28.58 x10^4 | % Inhibition Mean (MCF-7 cells; [12]): 46.86% | Cells (×10^4) Mean (MCF-7 cells; [12]): 26.35 ×10^4 | % Inhibition (MCF-7 cells; [13]): 39.91% and 40.35% and 35.59% | Cells (×10^4) (MCF-7 cells; [13]): 34.8 ×10^4 and 34.5 ×10^4 and 37.3 ×10^4 | % Inhibition (MCF-7 cells; [14]): 40.07% and 37.94% | Cells (×10^4) (MCF-7 cells; [14]): 42.3 ×10^4 (2×) and 43.8 ×10^4 | % Inhibition (MCF-7 cells; [15]): 47.98% and 51.88% and 51.45% | Cells (x10^4) (MCF-7 cells; [15]): 30.0 x10^4 and 27.8 x10^4 and 28.0 x10^4 | % Inhibition (MCF-7 cells; [16]): 49.98% and 45.04% and 45.55% | Cells (×10^4) (MCF-7 cells; [16]): 24.8 ×10^4 and 27.3 ×10^4 and 27.0 ×10^4 | Drug Inhibition on MCF-7 Cells (MCF-7 cells; 10 μg/ml, Table 8 summary): 61.1 | Drug Inhibition on MCF-7 Cells (MCF-7 cells; 10 μg/ml, Table 12 summary): 65.21 | MCF-7 Mean (drug inhibition) (MCF-7 cells; 10 μg/ml): 57.45 | Drug inhibition on MCF-7 Cells Mean (MCF-7 cells; 10 μg/ml): 65.03 | % Inhibition Mean (MCF-7 cells; [17]): 61.10% | Cells (×10^4) Mean (MCF-7 cells; [17]): 22.50 ×10^4 | % Inhibition Mean (MCF-7 cells; [18]): 57.45% | Cells (×10^4) Mean (MCF-7 cells; [18]): 30.00 ×10^4 | % Inhibition Mean (MCF-7 cells; [19]): 65.03% | Cells (x10^4) Mean (MCF-7 cells; [19]): 20.17 x10^4 | % Inhibition Mean (MCF-7 cells; [20]): 65.21% | Cells (×10^4) Mean (MCF-7 cells; [20]): 17.25 ×10^4 | % Inhibition (MCF-7 cells; [21]): 61.53% and 60.23% | Cells (×10^4) (MCF-7 cells; [21]): 22.3 ×10^4 (2×) and 23.0 ×10^4 | % Inhibition (MCF-7 cells; [22]): 57.45% | Cells (×10^4) (MCF-7 cells; [22]): 30.0 ×10^4 | % Inhibition (MCF-7 cells; [23]): 69.65% and 62.72% | Cells (x10^4) (MCF-7 cells; [23]): 17.5 x10^4 and 21.5 x10^4 (2×) | % Inhibition (MCF-7 cells; [24]): 65.21% and 63.19% and 67.23% | Cells (×10^4) (MCF-7 cells; [24]): 17.3 ×10^4 and 18.3 ×10^4 and 16.3 ×10^4 | Cells (×10^4) Mean (MCF-7 cells; drug 1 μg/ml, mean of replicates): 43.08 ×10^4 | % Inhibition Mean (MCF-7 cells; drug 1 μg/ml, mean of replicates, vs 2% DMSO): 15.38% | Cells (×10^4) (MCF-7 cells; drug 1 μg/ml, single replicate count): 43.3 ×10^4 (2×) and 42.8 ×10^4 | % Inhibition (MCF-7 cells; drug 1 μg/ml, single replicate, vs 2% DMSO): 15.06% and 16.04% | Cells (×10^4) Mean (MCF-7 cells; drug 5 μg/ml, mean of replicates): 32.08 ×10^4 | % Inhibition Mean (MCF-7 cells; drug 5 μg/ml, mean of replicates, vs 2% DMSO): 36.99% | Cells (×10^4) (MCF-7 cells; drug 5 μg/ml, single replicate count): 31.5 ×10^4 and 32.3 ×10^4 and 32.5 ×10^4 | % Inhibition (MCF-7 cells; drug 5 μg/ml, single replicate, vs 2% DMSO): 38.13% and 36.66% and 36.17% | Cells (×10^4) Mean (MCF-7 cells; drug 10 μg/ml, mean of replicates): 24.08 ×10^4 | % Inhibition Mean (MCF-7 cells; drug 10 μg/ml, mean of replicates, vs 2% DMSO): 52.7% | Cells (×10^4) (MCF-7 cells; drug 10 μg/ml, single replicate count): 22.0 ×10^4 and 25.5 ×10^4 and 24.8 ×10^4 | % Inhibition (MCF-7 cells; drug 10 μg/ml, single replicate, vs 2% DMSO): 56.79% and 49.92% and 51.39%
